According to US12509435B2, “Compounds for selective binding to estrogen receptors alpha/beta relative to GPER/GPR30 and methods of treating disease states and conditions mediated through these receptors” (UNM RAINFOREST INNOVATIONS, priority 2019, dated 2025):
Substitutions are numbered along the chain they refer to.

Tests used:
Assay type in all cases: cell-based
[1] = system: Tamoxifen-resistant MCF-7 cells (TamR) and long-term estrogen-deprived MCF-7 cells (LTED); experiment: Cell viability in cell line models of endocrine resistance after 5 days; conditions: TamR and LTED MCF-7 cells, normalized to DMSO-treated cells
From the text: Cells were a gift from Dr. Donald McDonnell (Duke University).

ERα = target: T1, ERα (Homo sapiens, UniProt P03372); experiment: Degradation of ERα in MCF-7 cells, Western blot; conditions: indicated concentrations
T1 construct: endogenous in cells; host or cells: MCF-7
T1 sequence (P03372 1-595): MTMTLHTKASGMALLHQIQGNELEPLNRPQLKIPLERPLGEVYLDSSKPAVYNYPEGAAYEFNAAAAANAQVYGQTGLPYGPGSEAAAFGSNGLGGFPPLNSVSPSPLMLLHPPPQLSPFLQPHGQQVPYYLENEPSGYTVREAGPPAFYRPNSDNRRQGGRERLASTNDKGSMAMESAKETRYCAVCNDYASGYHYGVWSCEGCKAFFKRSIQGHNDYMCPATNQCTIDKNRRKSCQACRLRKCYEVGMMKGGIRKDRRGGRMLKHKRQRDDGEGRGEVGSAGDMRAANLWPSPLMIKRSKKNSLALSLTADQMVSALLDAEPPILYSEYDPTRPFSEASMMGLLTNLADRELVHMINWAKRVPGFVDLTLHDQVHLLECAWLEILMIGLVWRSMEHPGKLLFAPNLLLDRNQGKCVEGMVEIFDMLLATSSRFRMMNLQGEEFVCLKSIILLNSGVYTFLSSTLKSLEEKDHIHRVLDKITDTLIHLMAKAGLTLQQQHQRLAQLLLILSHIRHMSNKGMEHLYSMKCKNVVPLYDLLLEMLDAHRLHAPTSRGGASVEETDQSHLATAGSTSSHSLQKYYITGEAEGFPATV
Method: MCF-7 were treated with the indicated compounds and ERα protein levels were assessed by Western blot (top panel). Actin served as a loading control (bottom panel). Quantification of the western blot is shown on the right.

ERα-Y537S = target: T2, ERα-Y537S (Homo sapiens, UniProt P03372, Y537S); experiment: Degradation of HA-ERα-Y537S mutant in transfected HEK293 cells, Western blot; conditions: HEK293 cells transfected with HA-ERα-Y537S, Western blot relative to actin
T2 construct: host or cells: HEK293
T2 sequence (P03372 1-595 Y537S): T1 sequence (P03372 1-595) with Y537S
From the text: HEK293 cells transfected with the HA-ERα-Y537S mutant were stimulated with the indicated compounds and HA-ERα-Y537S protein levels assessed by Western blot (left) and quantitated relative to actin (right).

degradation of ERα protein levels (ERα): Dose-dependent degradation of ERα | degradation of HA-ERα-Y537S protein levels (ERα-Y537S): induced degradation of ERα-Y537S
Compound: CCCCN(C)C(=O)CCCCCCCCCCCC1=CCC2(CO)COC(c3ccc(O)cc3)C1C2 (stereo not drawn) [AB-82P, N-butyl-12-(1-(hydroxymethyl)-4-(4-hydroxyphenyl)-3-oxabicyclo[3.3.1]non-6-en-6-yl)-N-methyldodecanamide]
effect on cell viability in models of endocrine resistance [1]: inhibitory effects
